B1: CPT: recombinant human circularly permuted TRAIL: amino acids 135-281, a linker, amino acids 122-135; SEQ ID NO: 1 (protein)
chain: TLSSPNSKNEKALGRKINSWESSRSGHSFLSNLHLRNGELVIHEKGFYYIYSQTYFRFQEEIKENTKNDKQMVQYIYKYTSYPDPILLMKSARNSCWSKDAEYGLYSIYQGGIFELKENDRIFVSVTNEHLIDMDHEASFFGAFLVGGGGGGVAAHITGTRGRSNT
modifications: CPT polypeptide sequence

Test system: human multiple myeloma cell line U266
Experiment: Combination with melphalan, cell survival (ATPlite)
Assay type: cell-based
Method: FIG. 9. […] U266 cells are insensitive to CPT. At the concentration of 1 μg/ml, NCPT-1.M1 alone has a mild killing effect on U266 (<20%), but with the presence of melphalan (12.5˜50 μg/ml), both of them can cause enhanced killing effect. The cell viability was assayed with ATPlite luminescent system (PerkinElmer), the data as shown in this figure are all represented as the mean±standard deviation, n=4, #P<0.05, ##P<0.01 vs. melphalan group; *P<0.05 vs. NCPT-1.M1 group.

Molecule | cell survival rate, melphalan alone (melphalan 12.5˜50 μg/ml, 48 h, U266B1) | sensitivity of the cell line (U266 / U266B1)
N[C@@H](Cc1ccc(N(CCCl)CCCl)cc1)C(=O)O [melphalan, reference compound] | 11.9˜100.9% | 
B1 |  | insensitive
